The values below come from US10166216B2 (Rigel Pharmaceuticals, Inc., priority 2006, dated 2019).

pIC50: −log10 of the molar value.

Axl, sequence (P30530 26-894): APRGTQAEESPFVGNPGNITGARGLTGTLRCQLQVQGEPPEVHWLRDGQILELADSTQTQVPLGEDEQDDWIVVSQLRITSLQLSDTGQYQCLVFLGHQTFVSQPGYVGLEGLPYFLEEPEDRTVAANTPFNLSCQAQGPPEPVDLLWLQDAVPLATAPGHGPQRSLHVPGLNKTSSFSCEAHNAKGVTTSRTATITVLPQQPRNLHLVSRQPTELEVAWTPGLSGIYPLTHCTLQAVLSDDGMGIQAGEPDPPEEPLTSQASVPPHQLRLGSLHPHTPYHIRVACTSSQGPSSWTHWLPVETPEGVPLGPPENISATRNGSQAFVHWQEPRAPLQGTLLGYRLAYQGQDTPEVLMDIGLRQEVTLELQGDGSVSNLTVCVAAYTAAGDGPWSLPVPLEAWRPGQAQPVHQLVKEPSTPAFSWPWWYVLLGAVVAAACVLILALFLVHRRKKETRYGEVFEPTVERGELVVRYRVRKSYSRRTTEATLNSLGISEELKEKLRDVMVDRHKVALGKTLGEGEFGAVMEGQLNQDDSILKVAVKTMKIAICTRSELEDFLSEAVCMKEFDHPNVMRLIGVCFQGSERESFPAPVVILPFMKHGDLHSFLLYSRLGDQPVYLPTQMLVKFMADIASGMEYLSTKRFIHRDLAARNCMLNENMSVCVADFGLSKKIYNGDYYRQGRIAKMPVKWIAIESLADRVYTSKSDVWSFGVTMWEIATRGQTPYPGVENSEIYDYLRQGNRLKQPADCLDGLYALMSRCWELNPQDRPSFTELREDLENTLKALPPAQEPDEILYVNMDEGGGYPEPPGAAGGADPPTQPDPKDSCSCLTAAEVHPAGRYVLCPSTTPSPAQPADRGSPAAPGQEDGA

The target in one assay is Axl (Homo sapiens (Human), UniProt P30530). The assay is described as follows: Phospho-Akt in-cell Western assay (Axl-antibody cross-linking stimulation). Format: cell-based. The settings on record: inhibition of Axl activity, Hela cells, phospho-Akt readout; Table 1, formula (Ia1). On the procedure:
The working solution: dilute the stock 1:20 with PBS immediately before use. • 10% SDS: working solution: 5% SDS (sodium dodecylsulfate), diluted in PBS Methods: Day 1:
A 96 well TC (tissue culture treated) plate was coated with 10 μg/mL poly-L-Lysine at 37° C. for 30 min, washed twice with PBS, and air-dried for 5 minutes before cells were added. Hela cells were seeded at 10,000 cells/well and the cells were starved in 100 μL starvation medium containing Axl/Fc for 24 hrs.
The cells were pre-treated with test compounds by adding 100 μL of 2× test compound to the starvation medium on the cells. The cells were incubated at 37° C. for 1 hr before stimulation.
The resulting mix was warmed to 37° C. 50 μL of 5× Axl 1st/2nd of antibody cluster was added to the cells and the cells were incubated at 37° C. for 5 min.
After 5 minutes stimulation, the plate was flicked to remove medium and the plate was tapped onto paper towels. Formaldehyde (4.0% in PBS, 100 μL) was added to fix the cells and the cells were incubated at ambient temperature for 20 min without shaking.
The cells were washed with a plate washer buffer to remove the formaldehyde solution. The plate was flicked to removed excess wash buffer and tapped onto paper towels. Quenching buffer (100 μL) was added to each well and the cells were incubated at ambient temperature for 20 minutes without shaking.
The cells were washed with a plate washer buffer to remove the quenching buffer. Blocking buffer (100 μL) was added and the cells were incubated at ambient temperature for at least an hour with gentle shaking.
The cells were washed with a plate washer buffer and diluted primary antibody (50 μL) was added to each well (blocking buffer was added to the negative control wells instead). The plates were incubated overnight at 4° C. with gentle shaking.
The wash buffer was removed, diluted secondary antibody (100 μL) was added, and the cells were incubated at ambient temperature for 1 hour with gentle shaking. During the incubation, the chemiluminescent reagent was brought to ambient temperature.
The secondary antibody was removed by washing the cells 1× with wash buffer, 1× with PBS by plate washer. The PBS was removed from the plate and the chemiluminescent reagent (80 μL: 40 μL A and 40 μL B) was added to each well at ambient temperature.
The resulting chemiluminescence was read with a Luminomitor within 10 minutes to minimize changes in signal intensity. […] The plate was tapped onto paper towels to remove excess liquid from wells and air-dried at ambient temperature for 5 minutes.
Crystal Violet working solution (60 μL) was added to each well and the cells were incubated at ambient temperature for 30 min. The crystal violet solution was removed, and the wells were rinsed with PBS, then washed 3× with PBS (200 μL) for 5 minutes each.
5% SDS solution (70 μL) was added to each well and the cells were incubated on a shaker for 30 min at ambient temperature.
This relative cell number was then used to normalize each luminescence reading. […]
Broadly, the pIC50 is −log10 of the IC50, conventionally taken in molar units. Higher therefore signals a low IC50. For `Nc1nc(Nc2ccc(OCCN3CCCC3)c(F)c2)nn1-c1ncnc2sc3c(c12)CCCC3` [Compound 68, N^3-(3-fluoro-4-(2-(pyrrolidin-1-yl)ethoxy)phenyl)-1-(5,6,7,8-tetrahydrobenzo[4,5]thieno[2,3-d]pyrimidin-4-yl)-1H-1,2,4-triazole-3,5-diamine], the pIC50 is above 6.00.
`Nc1nc(Nc2ccc(OCCN3CCCC3)cc2)nn1-c1nccc2occc12` [Compound 69, 1-(furo[3,2-c]pyridin-4-yl)-N^3-(4-(2-(pyrrolidin-1-yl)ethoxy)phenyl)-1H-1,2,4-triazole-3,5-diamine] had a pIC50 above 6.00.
The same measure, in the same setting: as for `Nc1nc(Nc2ccc(OCCN3CCCC3)cc2)nn1-c1cc2c(nn1)-c1ccccc1CC2` [Compound 75, 1-(5,6-dihydrobenzo[h]cinnolin-3-yl)-N^3-(4-(2-(pyrrolidin-1-yl)ethoxy)phenyl)-1H-1,2,4-triazole-3,5-diamine], the figure is above 6.00; as for `Nc1nc(Nc2ccc(OCCN3CCCC3)cc2)nn1-c1nc(O)c2c(n1)CCCC2` [Compound 76, 2-(5-amino-3-(4-(2-(pyrrolidin-1-yl)ethoxy)phenylamino)-1H-1,2,4-triazol-1-yl)-5,6,7,8-tetrahydroquinazolin-4-ol], below 4.70; as for `COc1cc2ccnc(-n3nc(Nc4ccc(OCCN5CCCC5)cc4)nc3N)c2cc1OC` [Compound 77, 1-(6,7-dimethoxyisoquinolin-1-yl)-N^3-(4-(2-(pyrrolidin-1-yl)ethoxy)phenyl)-1H-1,2,4-triazole-3,5-diamine], above 6.00.
On the same count and under the same terms, as for `Nc1nc(Nc2ccc(OCCN3CCCC3)cc2)nn1-c1nccc2[nH]c(=O)ccc12` [Compound 78, 5-(5-amino-3-(4-(2-(pyrrolidin-1-yl)ethoxy)phenylamino)-1H-1,2,4-triazol-1-yl)-1,6-naphthyridin-2(1H)-one], the figure is above 6.00.

The same assay, now with this note: inhibition of Axl activity, Hela cells, phospho-Akt readout; Table 4, formula (Ib2).
In turn, `COc1cc2ncnc(-n3nc(N)nc3Nc3ccc(N4CCN(C5CCCCC5)CC4)cc3)c2cc1OC` [Compound 83, N^5-(4-(4-cyclohexylpiperazin-1-yl)phenyl)-1-(6,7-dimethoxyquinazolin-4-yl)-1H-1,2,4-triazole-3,5-diamine] showed a pIC50 above 6.00.
Take `CN1CCN(c2ccc(Nc3nc(N)nn3-c3ncnc4ccc(Cl)cc34)cc2)CC1` [Compound 86, 1-(6-chloroquinazolin-4-yl)-N^5-(4-(4-methylpiperazin-1-yl)phenyl)-1H-1,2,4-triazole-3,5-diamine]: the pIC50 was above 6.00.
As to `Nc1nc(Nc2ccc(N3CCN(C4CC5CCC4C5)CC3)cc2)n(-c2nc3ccccc3s2)n1` (centres unmarked) [Compound 95, 1-(benzo[d]thiazol-2-yl)-N^5-(4-(4-(bicyclo[2.2.1]heptan-2-yl)piperazin-1-yl)phenyl)-1H-1,2,4-triazole-3,5-diamine], the pIC50 is below 4.70.
Same read-out and setting: the result for `COc1cc2ncnc(-n3nc(N)nc3Nc3ccc(N4CCN(C5CC6CCC5C6)CC4)cc3)c2cc1OC` (centres unmarked) [Compound 100, N^5-(4-(4-(bicyclo[2.2.1]heptan-2-yl)piperazin-1-yl)phenyl)-1-(6,7-dimethoxyquinazolin-4-yl)-1H-1,2,4-triazole-3,5-diamine] reads above 6.00.

The same assay, now with this note: inhibition of Axl activity, phospho-Akt in-cell Western assay.
For `Nc1nc(Nc2ccc(N3CCN(C4CCCCC4)CC3)cc2)nn1-c1nccc2ccccc12` [Compound 81, N^3-(4-(4-cyclohexylpiperazin-1-yl)phenyl)-1-(isoquinolin-1-yl)-1H-1,2,4-triazole-3,5-diamine], the pIC50 was above 6.00.
`COc1cc2c(-n3nc(Nc4ccc(N5CCN(C6CCCCC6)CC5)cc4)nc3N)ncnc2cc1O` [Compound 82, 4-(5-amino-3-(4-(4-cyclohexylpiperazin-1-yl)phenylamino)-1H-1,2,4-triazol-1-yl)-6-methoxyquinazolin-7-ol] had a pIC50 above 6.00.
In turn, `CN1CCN(c2ccc(Nc3nc(N)n(-c4nccc5ccccc45)n3)cc2)CC1` [Compound 84, 1-(isoquinolin-1-yl)-N^3-(4-(4-methylpiperazin-1-yl)phenyl)-1H-1,2,4-triazole-3,5-diamine] had a pIC50 above 6.00.
Regarding `CN1CCN(c2ccc(Nc3nc(N)n(-c4ncnc5ccc(Cl)cc45)n3)cc2)CC1` [Compound 85, 1-(6-chloroquinazolin-4-yl)-N^3-(4-(4-methylpiperazin-1-yl)phenyl)-1H-1,2,4-triazole-3,5-diamine], the pIC50 was above 6.00.
Same read-out and setting: the result for `Nc1nc(Nc2ccc(N3CCN(C4CCCCC4)CC3)c(F)c2)nn1-c1nccc2ccccc12` [Compound 87, N^3-(4-(4-cyclohexylpiperazin-1-yl)-3-fluroophenyl)-1-(isoquinolin-1-yl)-1H-1,2,4-triazole-3,5-diamine] reads above 6.00; that for `CC(=O)N1CCN(c2ccc(Nc3nc(N)n(-c4nccc5ccccc45)n3)cc2)CC1` [Compound 88, 1-(4-(4-(5-amino-1-(isoquinolin-1-yl)-1H-1,2,4-triazol-3-ylamino)phenyl)piperazin-1-yl)ethanone], 5.00 to 6.00; that for `CN1CCN(c2ccc(Nc3nc(N)n(-c4nccc5ccccc45)n3)cc2F)CC1` [Compound 90, N^3-(3-fluoro-4-(4-methylpiperazin-1-yl)phenyl)-1-(isoquinolin-1-yl)-1H-1,2,4-triazole-3,5-diamine], above 6.00.
The same measure, in the same setting: as for `Nc1nc(Nc2ccc(N3CCN(C4CCCCC4)CC3)c(Cl)c2)nn1-c1nccc2ccccc12` [Compound 91, N^3-(3-chloro-4-(4-cyclohexylpiperazin-1-yl)phenyl)-1-(isoquinolin-1-yl)-1H-1,2,4-triazole-3,5-diamine], the figure is above 6.00; as for `CN1CCN(c2ccc(Nc3nc(N)n(-c4ncc5c(n4)-c4ccccc4CC5)n3)cc2)CC1` [Compound 92, 1-(5,6-dihydrobenzo[h]quinazolin-2-yl)-N^3-(4-(4-methylpiperazin-1-yl)phenyl)-1H-1,2,4-triazole-3,5-diamine], above 6.00; as for `Nc1nc(Nc2ccc(N3CCN(C4CCCCC4)CC3)cc2)nn1-c1ncc2c(n1)-c1ccccc1CC2` [Compound 93, N^3-(4-(4-cyclohexylpiperazin-1-yl)phenyl)-1-(5,6-dihydrobenzo[h]quinazolin-2-yl)-1H-1,2,4-triazole-3,5-diamine], above 6.00.
With `Nc1nc(Nc2ccc(N3CCN(C4CC5CCC4C5)CC3)cc2)nn1-c1ccccn1` (centres unmarked) [Compound 94, N^3-(4-(4-(bicyclo[2.2.1]heptan-2-yl)piperazin-1-yl)phenyl)-1-(pyridin-2-yl)-1H-1,2,4-triazole-3,5-diamine], the pIC50 is 5.00 to 6.00.
In the case of `Nc1nc(Nc2ccc(N3CCN(C4CC5CCC4C5)CC3)cc2)nn1-c1nc2ccccc2s1` (centres unmarked) [Compound 96, 1-(benzo[d]thiazol-2-yl)-N^3-(4-(4-(bicyclo[2.2.1]heptan-2-yl)piperazin-1-yl)phenyl)-1H-1,2,4-triazole-3,5-diamine], the pIC50 was 5.00 to 6.00.
`Nc1nc(Nc2ccc(N3CCN(C4CC5CCC4C5)CC3)cc2)nn1-c1cnc2ccccc2n1` (centres unmarked) [Compound 97, N^3-(4-(4-(bicyclo[2.2.1]heptan-2-yl)piperazin-1-yl)phenyl)-1-(quinoxalin-2-yl)-1H-1,2,4-triazole-3,5-diamine] showed a pIC50 of 5.00 to 6.00.
As for `COc1cc2ncnc(-n3nc(Nc4ccc(N5CCN(C6CC7CCC6C7)CC5)cc4)nc3N)c2cc1OC` (centres unmarked) [Compound 98, N^3-(4-(4-(bicyclo[2.2.1]heptan-2-yl)piperazin-1-yl)phenyl)-1-(6,7-dimethoxyquinazolin-4-yl)-1H-1,2,4-triazole-3,5-diamine], the pIC50 is above 6.00.
As to `COc1cc2nc(Cl)nc(-n3nc(Nc4ccc(N5CCN(C6CC7CCC6C7)CC5)cc4)nc3N)c2cc1OC` (centres unmarked) [Compound 101, N^3-(4-(4-(bicyclo[2.2.1]heptan-2-yl)piperazin-1-yl)phenyl)-1-(2-chloro-6,7-dimethoxyquinazolin-4-yl)-1H-1,2,4-triazole-3,5-diamine], the pIC50 is 5.00 to 6.00.
Consider `COc1cc2c(-n3nc(Nc4ccc(N5CCN(C6CC7CCC6C7)CC5)cc4)nc3N)nc(Cl)nc2cc1O` (centres unmarked) [Compound 102, 4-(5-amino-3-(4-(4-(bicyclo[2.2.1]heptan-2-yl)piperazin-1-yl)phenylamino)-1H-1,2,4-triazol-1-yl)-2-chloro-6-methoxyquinazolin-7-ol], for which the pIC50 is above 6.00.
